Earlier results in article PMC8284440, “Toward New Transmission-Blocking Combination Therapies: Pharmacokinetics of 10-Amino-Artemisinins and 11-Aza-Artemisinin and Comparison with Dihydroartemisinin and Artemether” (Antimicrobial Agents and Chemotherapy, 2021).

Conditions: in vivo; cited from earlier work

SMILES: C[C@H]1[C@H](N2CCS(=O)(=O)CC2)O[C@@H]2O[C@@]3(C)CC[C@H]4[C@H](C)CC[C@@H]1[C@@]24OO3 [Artemisone 6, artemisone]
- artemisone equivalent concentrations at Tmax by bioassay versus LC/MS-MS, fold higher: about 2.3 fold
